In US8158587B2, “Compound having histone deacetylase-inhibiting activity, and pharmaceutical composition comprising the compound as an active ingredient” (Kyushu Institute of Technology, priority 2006, dated 2012):
pIC50: −log10 of the molar value.

Key:
human HDAC4 = target: T1, human HDAC4 (Homo sapiens, UniProt P56524); test: HDAC-inhibiting activity, coumarin-labeled acetylated histone peptide assay; format: biochemical; conditions: human HDAC4 from transfected 293T cells; 37° C., 30 minutes; read-out: HDAC-inhibiting activity IC50 HDAC4
T1 construct: made in house; host or cells: 293T cells (transient transfection, anti-FLAG immunoprecipitation, FLAG peptide elution)
Protocol: In carrying out HDAC-inhibiting activity measurements, HDAC solutions were prepared in the following manner. […] The human HDAC1 expression vector used was pcDNA3-HD1 (Yang, W. M., Yao, Y. L., Sun, […]. & Seto, E. (1997) J. Biol. Chem. 272, 28001-28007), the human HDAC4 expression vector used was pcDNA3-HD4 ([…]., Nagase, […]. Biol. Chem. 274, 11713-11720), and the murine HDAC6 expression vector used was pcDNA3-mHDA2/HDAC6 ([…]. Biol. Chem. 274, 2440-2445). After 24 hours of incubation, cells were recovered, washed with PBS, suspended in lysis buffer (50 mM Tris-HCl (pH 7.5), 120 mM NaCl, 5 mM EDTA, 0.5% Nonidet P-40), and sonicated. The supernatant was collected by centrifugation and then deprived of nonspecific proteins using Protein A/G plus agarose beads (Santa Cruz Biotechnologies, Inc.). Thereafter, anti-FLAG M2 antibody (Sigma-Aldrich Inc.) was added, and the reaction was allowed to proceed at 4° C. for 2 hours. To this were added agarose beads, the reaction was allowed to proceed at 4° C. for 3 hours, and the agarose beads were washed three times with lysis buffer and then once with HD buffer (20 mM Tris-HCl (pH 8.0), 150 mM NaCl, 10% glycerol). […] HDAC-inhibiting activity evaluation in each in vitro system was made as follows. Each test compound was dissolved in DMSO, a stock solution with a concentration of 10 mM was thus prepared and this was used as an inhibitor stock solution. The assay was carried out by incubating the HDAC solution and a coumarin-labeled acetylated histone peptide solution in the presence of the test compound at 37° C. for 30 minutes (reaction volume 20 μl). To the reaction mixture was added 30 μl of trypsin, and the aminomethylcoumarin released by the enzymatic reaction was assayed using a fluorescent plate reader. In a negative control assay, no inhibitor was added to the reaction system and the same procedure was carried out.

[1] = tested on: ovarian cancer cell line SK-OV-3; test: Human cancer cell line panel, proliferation (sulforhodamine B); format: cell-based; conditions: SK-OV-3, 2 days of cultivation; read-out: 50% inhibitory concentration, proliferation
Source text: (§1) The characteristics of the human cancer cell proliferation-inhibiting activity of the compounds of the present invention were examined by the “method of evaluating the mechanisms of action of compounds using a panel of human cancer cell lines” as proposed by Yamori et al. (cf. Gan to Kagaku Ryoho (Cancer and Chemotherapy) 29 Suppl. II (2002) and Cancer Chemother. Pharmacol. 52 Suppl. I, S74-79 (2003)).
(§2) This system includes […] (7 lung cancer, 6 stomach cancer, 5 colon cancer, 5 ovarian cancer, 6 brain tumor, […], 2 kidney cancer and 2 prostate cancer cell lines as well as one melanoma line) and the method comprises measuring the in vitro drug susceptibilities of those cancer cell lines and expressing the differences in drug susceptibility among the respective cancer cell lines as a fingerprint. […] By utilizing this property, it is possible to estimate the mechanisms of action of a compound. The above method is also characterized in that an anticancer substance showing new and unique mechanisms of action different from those of the existing anticancer agents can be selected.
(§3) Cancer cells of each cell line are sowed onto a 96-well plate, a sample solution is added on the next day and, after 2 days of cultivation, the cell proliferation is measured by colorimetry using sulforhodamine B. The deviations in effective concentration for the respective cancer cell lines from the mean effective drug concentration for the 39 cancer cell lines subjected to measurement are calculated and shown in the form a fingerprint.

[2] = tested on: colon cancer cell line KM-12; test: as above; format: cell-based; conditions: KM-12, 2 days of cultivation; read-out: 50% inhibitory concentration, proliferation
Source text: as §1, §2, §3

[3] = tested on: kidney cancer cell line ACHN; test: as above; format: cell-based; conditions: 2 days of cultivation, read-out: 50% inhibitory concentration, proliferation
Source text: as §1, §2, §3

[4] = tested on: brain tumor cell line SF-268; test: as above; format: cell-based; conditions: SF-268, 2 days of cultivation; read-out: 50% inhibitory concentration, proliferation
Source text: as §1, §2, §3

[5] = tested on: brain tumor cell line SF-295; test: as above; format: cell-based; conditions: SF-295, 2 days of cultivation; read-out: 50% inhibitory concentration, proliferation
Source text: as §1, §2, §3

T1 sequence (P56524 whole entry): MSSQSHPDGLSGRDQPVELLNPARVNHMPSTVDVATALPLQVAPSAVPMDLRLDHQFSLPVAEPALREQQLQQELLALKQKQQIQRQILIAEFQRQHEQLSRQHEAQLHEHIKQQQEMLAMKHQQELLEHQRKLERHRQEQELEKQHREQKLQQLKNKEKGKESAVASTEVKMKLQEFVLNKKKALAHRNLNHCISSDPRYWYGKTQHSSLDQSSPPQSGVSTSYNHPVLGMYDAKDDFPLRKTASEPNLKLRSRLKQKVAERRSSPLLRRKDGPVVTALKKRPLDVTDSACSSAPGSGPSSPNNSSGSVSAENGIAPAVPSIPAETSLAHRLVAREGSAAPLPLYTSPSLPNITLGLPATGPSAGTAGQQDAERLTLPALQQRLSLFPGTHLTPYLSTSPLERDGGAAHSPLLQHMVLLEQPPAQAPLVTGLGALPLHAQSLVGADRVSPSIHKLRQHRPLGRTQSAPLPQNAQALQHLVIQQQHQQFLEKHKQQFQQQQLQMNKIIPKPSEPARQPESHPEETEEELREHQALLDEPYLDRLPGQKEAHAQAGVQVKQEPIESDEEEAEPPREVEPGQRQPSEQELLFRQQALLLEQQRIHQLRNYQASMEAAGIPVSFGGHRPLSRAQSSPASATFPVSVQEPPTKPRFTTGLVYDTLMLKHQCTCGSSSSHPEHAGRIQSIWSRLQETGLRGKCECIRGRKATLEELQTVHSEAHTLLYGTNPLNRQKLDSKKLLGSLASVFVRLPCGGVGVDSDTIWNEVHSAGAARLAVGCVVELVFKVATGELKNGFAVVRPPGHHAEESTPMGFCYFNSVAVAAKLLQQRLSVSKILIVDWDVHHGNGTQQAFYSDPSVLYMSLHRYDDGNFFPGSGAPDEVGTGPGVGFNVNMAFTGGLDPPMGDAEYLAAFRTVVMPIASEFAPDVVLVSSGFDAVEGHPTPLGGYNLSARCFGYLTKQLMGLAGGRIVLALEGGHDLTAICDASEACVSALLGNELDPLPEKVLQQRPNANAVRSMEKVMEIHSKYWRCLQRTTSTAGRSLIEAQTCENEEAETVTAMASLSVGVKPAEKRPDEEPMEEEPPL
T1 sequence (O15379 whole entry, further chain): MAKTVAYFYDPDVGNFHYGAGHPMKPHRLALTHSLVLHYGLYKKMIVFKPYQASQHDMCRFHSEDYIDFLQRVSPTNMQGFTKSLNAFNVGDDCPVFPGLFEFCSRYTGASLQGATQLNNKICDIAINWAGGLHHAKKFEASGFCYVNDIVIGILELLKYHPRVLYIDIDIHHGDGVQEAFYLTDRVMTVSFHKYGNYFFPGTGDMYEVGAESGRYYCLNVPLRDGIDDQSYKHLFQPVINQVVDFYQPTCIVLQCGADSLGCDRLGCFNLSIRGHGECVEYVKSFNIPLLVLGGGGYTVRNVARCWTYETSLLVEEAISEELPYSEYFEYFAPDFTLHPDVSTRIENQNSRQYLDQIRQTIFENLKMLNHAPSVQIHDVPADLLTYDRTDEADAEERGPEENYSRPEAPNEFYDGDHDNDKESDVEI

SMILES | pIC50 (human HDAC4) | pIC50 [1] | pIC50 [2] | pIC50 [3] | pIC50 [4] | pIC50 [5]
CC1(C)NC(=O)[C@H](CCCCCSCc2ccncc2)NC(=O)[C@H]2CCCN2C(=O)[C@H](Cc2ccccc2)NC1=O [Ky-26, cyclo(-L-Am7(4-pyridylmethyl)-Aib-L-Phe-D-Pro-)] | 7.60 |  |  |  |  | 
CC(=O)CSCCCCC[C@@H]1NC(=O)[C@H]2CCCN2C(=O)[C@H](Cc2ccccc2)NC(=O)C(C)(C)NC1=O [Ky-72, cyclo(-L-Am7(acetonyl)-Aib-L-Phe-D-Pro-)] | 5.80 | ≥ 7.00 | ≥ 7.00 | ≥ 7.00 | ≥ 7.00 | ≥ 7.00
